Data reported in US7511041B2, “Fused azole-pyrimidine derivatives” (Bayer Pharmaceuticals Corporation, priority 2002, dated 2009).
Like-named read-outs stand apart in the source and are kept apart here.

Columns and labels:
[1] = target: T1, Recombinant human PI3Kγ (full length human PI3K p110γ) (Homo sapiens, UniProt P48736); experiment: Kinase assay of PI3Kγ (solid-phase lipid kinase assay); type: biochemical
T1 construct: full length human PI3K p110γ fused with a His6-tag at the C-terminus; His6 (C); purchased ALEXIS BIOCHEMICALS #201-055-C010; host or cells: S. frugiperda 9 insect cells
T1 sequence (P48736 whole entry, the tested form may be a part): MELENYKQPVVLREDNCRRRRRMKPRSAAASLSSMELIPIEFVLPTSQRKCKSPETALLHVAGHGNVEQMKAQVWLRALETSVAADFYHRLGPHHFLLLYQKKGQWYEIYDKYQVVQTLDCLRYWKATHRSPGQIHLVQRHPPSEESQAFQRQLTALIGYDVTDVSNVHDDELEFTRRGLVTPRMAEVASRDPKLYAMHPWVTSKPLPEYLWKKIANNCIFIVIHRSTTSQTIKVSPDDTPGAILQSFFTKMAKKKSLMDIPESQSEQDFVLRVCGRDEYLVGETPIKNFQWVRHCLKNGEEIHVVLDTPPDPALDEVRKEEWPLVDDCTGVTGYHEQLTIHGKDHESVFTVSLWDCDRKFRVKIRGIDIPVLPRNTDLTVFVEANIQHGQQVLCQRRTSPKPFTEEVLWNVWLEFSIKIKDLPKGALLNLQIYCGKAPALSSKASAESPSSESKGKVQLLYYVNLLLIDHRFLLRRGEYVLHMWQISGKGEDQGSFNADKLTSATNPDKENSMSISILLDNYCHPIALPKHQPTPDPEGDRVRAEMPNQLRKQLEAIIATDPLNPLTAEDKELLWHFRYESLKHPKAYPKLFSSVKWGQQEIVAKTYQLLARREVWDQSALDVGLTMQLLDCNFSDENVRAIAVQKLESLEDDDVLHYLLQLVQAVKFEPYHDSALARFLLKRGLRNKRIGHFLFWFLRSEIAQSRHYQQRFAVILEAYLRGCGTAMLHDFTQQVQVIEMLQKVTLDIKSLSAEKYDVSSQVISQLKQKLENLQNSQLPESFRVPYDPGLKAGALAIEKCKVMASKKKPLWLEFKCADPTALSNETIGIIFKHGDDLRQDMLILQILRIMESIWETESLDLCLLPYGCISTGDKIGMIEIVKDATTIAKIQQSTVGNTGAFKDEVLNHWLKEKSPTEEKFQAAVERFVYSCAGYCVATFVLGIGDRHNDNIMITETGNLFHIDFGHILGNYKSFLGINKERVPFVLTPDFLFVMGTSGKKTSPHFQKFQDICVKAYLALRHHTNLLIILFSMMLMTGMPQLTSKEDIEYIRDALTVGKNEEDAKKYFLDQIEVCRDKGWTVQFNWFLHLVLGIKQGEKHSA

[2] = in vitro PI3K-γ inhibitory activity, class symbols A-D, read-out: in vitro PI3K-gamma
[3] = in vitro PI3K-γ inhibitory activity, class symbols, read-out: in vitro PI3K-gamma
[4] = Table 1, isozyme not given, read-out: in vitro

SMILES | melting point | IC50 [1, 2] [nM] | IC50 [1, 3] [nM] | IC50 [1, 4] [nM]
COc1c(OCC(=O)N2CCOCC2)ccc2c1N=C(/C=C(\O)c1cccnc1)N1CCN=C21 [Example 1-29] | 235 °C | – | – | < 100
O=C(NC1=Nc2ccccc2C2=NCCN12)c1ccccc1Cl.O=C(O)C(F)(F)F [Example 2-226] | 221 to 224 °C | > 2000 | – | –
COc1cc2c(cc1OC)C1=NCCN1C(/C=C(\O)c1ccccc1)=N2 [Example 1-185] | 249 to 252 °C | – | – | 500 to 2000
CC(C)(C)OC(=O)CCc1ccc2c(n1)N=C(/C=C(\O)c1cccnc1)N1CCN=C21 [Example 1-163] | 200 °C | – | – | 100 to 500
COc1cc(OC)c2c(c1)C1=NCCN1C(/C=C(\O)c1cccnc1)=N2 [Example 1-42] | 218 °C | – | – | < 100
O=C(NC1=Nc2ccccc2C2=NCCN12)c1ccccc1.O=C(O)C(F)(F)F [Example 2-215] | 238 to 242 °C | 100 to 500 | – | –
COc1cc2c(cc1OC)C1=NCCN1C(/C=C(\O)c1cccc(Cl)c1)=N2 [Example 1-186] | 257 to 259 °C | – | – | > 2000
COc1c(OCC2CCCCO2)ccc2c1N=C(/C=C(\O)c1cccnc1)N1CCN=C21 (centres unmarked) [Example 1-194] | 233 to 234 °C | – | – | < 100
Nc1ccccc1C(=O)NC1=Nc2ccccc2C2=NCCN12.O=C(O)C(F)(F)F [Example 2-257] | 175 °C (dec.) | > 2000 | – | –
N#Cc1ccc(C(=O)NC2=Nc3ccccc3C3=NCCN23)cc1.O=C(O)C(F)(F)F [Example 2-256] | 248 to 250 °C | > 2000 | – | –
Cl.O/C(=C\C1=Nc2ccc(O)cc2C2=NCCN12)c1cccnc1 [Example 1-125] | > 300 °C | – | – | < 100
CC(=O)Nc1ccc(/C(O)=C/C2=Nc3ccccc3C3=NCCN23)cc1 [Example 1-133] | > 300 °C | – | – | 100 to 500
COc1c(OCC#N)ccc2c1N=C(/C=C(\O)c1cccnc1)N1CCN=C21 [Example 1-195] | 284 to 285 °C | – | – | < 100
CC(=O)Nc1ccc(/C(O)=C/C2=Nc3cc(N4CCN(C)CC4)ccc3C3=NCCN23)cn1 [Example 1-105] | 292 °C (dec.) | – | – | 100 to 500
CC(=O)Nc1ccc(/C(O)=C/C2=Nc3c(Br)cc(C)cc3C3=NCCN23)cn1.Cl [Example 1-46] | > 285 °C | – | – | < 100
Cc1cc(Br)c2c(c1)C1=NCCN1C(/C=C(\O)c1ccc3[nH]cnc3c1)=N2 [Example 1-47] | > 285 °C | – | – | 100 to 500
O=[N+]([O-])c1ccc2c(c1)C1=NCCN1C(/C=C(\O)c1cccnc1)=N2 [Example 1-192] | 306 °C | – | – | 500 to 2000
O/C(=C\C1=Nc2ccccc2C2=NCCN12)c1ccoc1 [Example 1-145] | 155 to 156 °C | – | – | 100 to 500
COc1c(O)ccc2c1N=C(/C=C(\O)c1cccnc1)N1CCN=C21.Cl [Example 1-9] | 245 °C (dec.) | – | – | < 100
CC(=O)Nc1ccc(/C(O)=C/C2=Nc3c(C)cc(Br)cc3C3=NCCN23)cn1.Cl [Example 1-44] | > 290 °C | – | – | 100 to 500
CC(=O)Nc1ccc(/C(O)=C/C2=Nc3cc(CN4CCOCC4)ccc3C3=NCCN23)cn1 [Example 1-113] | 245 °C | – | – | 100 to 500
COc1ccc(/C(O)=C/C2=Nc3ccccc3C3=NCCN23)cc1 [Example 1-169] | 212 to 214 °C | – | – | > 2000
O/C(=C\C1=Nc2ccccc2C2=NCCN12)c1ccsc1 [Example 1-148] | 182 to 183 °C | – | – | 100 to 500
Cl.O/C(=C\C1=Nc2cc(N3CCCC(O)C3)ccc2C2=NCCN12)c1ccc2[nH]cnc2c1 (centres unmarked) [Example 1-210] | > 300 °C | – | – | < 100
O/C(=C\C1=Nc2cc(N3CCOCC3)ccc2C2=NCCN12)c1cccnc1 [Example 1-94] | 282 °C | – | – | 100 to 500
COc1c(C)ccc2c1N=C(/C=C(\O)c1ccc(NC(C)=O)nc1)N1CCN=C21.Cl [Example 1-33] | 273 °C | – | – | < 100

Results, then the compound that gave them:

melting point | IC50 [1, 2] [nM] | IC50 [1, 3] [nM] | IC50 [1, 4] [nM] | SMILES
274 °C (dec.) | 100 to 500 | – | – | COc1ccc(C(=O)NC2=Nc3ccccc3C3=NCCN23)cc1OC.Cl [Example 2-238]
300 °C (dec.) | > 2000 | – | – | COc1ccc(C(=O)NC2=Nc3ccccc3C3=NCCN23)cc1 [Example 2-235]
252 °C (dec.) | – | 100 to 500 | – | Cc1ncccc1C(=O)NC1=Nc2cc(Br)ccc2C2=NCCN12.Cl [Example 2-43]
319 °C (dec.) | 100 to 500 | – | – | Cl.O=C(NC1=Nc2ccccc2C2=NCCN12)c1cnc2ccccc2c1 [Example 2-317]
164 to 165 °C | > 2000 | – | – | O=C(NC1=Nc2ccccc2C2=NCCN12)C1CC1 [Example 2-334]
201 to 203 °C | > 2000 | – | – | Cc1cccc(C(=O)NC2=Nc3ccccc3C3=NCCN23)c1 [Example 2-216]
> 300 °C | – | < 100 | – | Nc1ccc(C(=O)NC2=Nc3ccccc3C3=NCCN23)cn1 [Example 2-149]
228 °C (dec.) | – | < 100 | – | COc1cc(OC)c2c(c1)C1=NCCN1C(NC(=O)c1cccnc1)=N2 [Example 2-68]
> 300 °C | – | < 100 | – | O=C(NC1=Nc2c(F)cccc2C2=NCCN12)c1ccc2[nH]cnc2c1 [Example 2-101]
210 to 212 °C | > 2000 | – | – | O=C(NC1=Nc2ccccc2C2=NCCN12)c1ccc(F)cc1 [Example 2-225]
181 °C | – | 100 to 500 | – | O=C(NC1=Nc2cc(OCCOCCO)ccc2C2=NCCN12)c1cccnc1 [Example 2-201]
350 °C (dec.) | 500 to 2000 | – | – | O=C(NC1=Nc2ccccc2C2=NCCN12)c1ccco1 [Example 2-298]
289 °C (dec.) | – | 100 to 500 | – | COc1cc2c(cc1Br)C1=NCCN1C(NC(=O)c1cccnc1)=N2.Cl [Example 2-67]
232 °C | > 2000 | – | – | O=C(NC1=Nc2ccc(Br)cc2C2=NCCN12)c1cccs1 [Example 2-351]
289 to 290 °C | – | < 100 | – | Cc1nc(C)c(C(=O)NC2=Nc3ccccc3C3=NCCN23)s1.Cl [Example 2-190]
210 °C (dec.) | 500 to 2000 | – | – | COc1ccc(C(=O)NC2=Nc3ccccc3C3=NCCN23)c(OC)n1.Cl [Example 2-287]
283 °C | – | < 100 | – | Cl.O=C(NC1=Nc2cc(N3CCOCC3)ccc2C2=NCCN12)c1cccnc1 [Example 2-8]
210 to 215 °C (dec.) | – | 100 to 500 | – | O=C(NC1=Nc2cc(OCCO)ccc2C2=NCCN12)c1cccnc1 [Example 2-197]
213 to 214 °C | 100 to 500 | – | – | Cc1ccc(C(=O)NC2=Nc3ccccc3C3=NCCN23)c(Cl)n1 [Example 2-290]

melting point | IC50 [1, 2] [nM] | IC50 [1, 3] [nM] | IC50 [1, 4] [nM] | SMILES
276 °C | 100 to 500 | – | – | Cl.O=C(NC1=Nc2ccc(Cl)cc2C2=NCCN12)c1cccs1 [Example 2-356]
229 °C | – | 100 to 500 | – | O=C(NC1=Nc2cc(C(F)(F)F)ccc2C2=NCCN12)c1cccnc1 [Example 2-33]
268 to 269 °C | > 2000 | – | – | O=C(NC1=Nc2ccccc2C2=NCCN12)c1cc(Cl)cc(Cl)c1 [Example 2-231]
218 to 222 °C | > 2000 | – | – | CN1CCN(c2ccc(C(=O)NC3=Nc4ccccc4C4=NCCN34)cc2)CC1 [Example 2-261]
> 300 °C | < 100 | – | – | Cl.O=C(NC1=Nc2ccc(O)cc2C2=NCCN12)c1cccnc1 [Example 2-211]
277 °C (dec.) | > 2000 | – | – | Cc1cc(C(=O)NC2=Nc3ccccc3C3=NCCN23)cc(C)c1[N+](=O)[O-] [Example 2-222]
244 °C | – | 100 to 500 | – | Cc1cccc2c1N=C(NC(=O)c1cccnc1)N1CCN=C21 [Example 2-107]
198 to 199 °C | 500 to 2000 | – | – | COc1ncccc1C(=O)NC1=Nc2ccccc2C2=NCCN12 [Example 2-285]
232 to 236 °C (dec.) | 100 to 500 | – | – | O=C(NC1=Nc2cc(OCC(=O)N3CCOCC3)ccc2C2=NCCN12)c1cccnc1 [Example 2-207]
196 to 198 °C | – | 100 to 500 | – | C=Cc1ccc2c(c1)C1=NCCN1C(NC(=O)c1cccnc1)=N2 [Example 2-95]
275 °C (dec.) | – | 100 to 500 | – | O=C(NC1=Nc2ccccc2C2=NCCN12)c1ccc2cccnc2n1 [Example 2-177]
228 °C | 500 to 2000 | – | – | O=C(NC1=Nc2cc(Cl)ccc2C2=NCCN12)c1cccs1 [Example 2-354]
224 to 226 °C | > 2000 | – | – | COC(=O)c1cccc(C(=O)NC2=Nc3ccccc3C3=NCCN23)c1 [Example 2-272]
147 to 148 °C | > 2000 | – | – | CC(C)(C)OC(=O)N1CCCC(C(=O)NC2=Nc3ccccc3C3=NCCN23)C1 (centres unmarked) [Example 2-338]
295 °C (dec.) | – | 100 to 500 | – | Cl.O=C(NC1=Nc2ccccc2C2=NCCN12)c1cccc2[nH]ccc12 [Example 2-169]
233 °C (dec.) | – | < 100 | – | COc1ccc2c(c1OC)N=C(NC(=O)c1cnc3[nH]cnc3c1)N1CCN=C21 [Example 2-51]
243 °C | – | 100 to 500 | – | O=C(NC1=Nc2c(F)cccc2C2=NCCN12)c1cccnc1 [Example 2-99]
275 °C | 500 to 2000 | – | – | Cl.O=C(NC1=Nc2ccc(Br)cc2C2=NCCN12)c1cccs1 [Example 2-352]
243 °C | – | 100 to 500 | – | O=C(NC1=Nc2cc(N3CCOCC3)ccc2C2=NCCN12)c1cccnc1 [Example 2-7]
